Experimental data: patent US11198687B2, “Heteroaryl allosteric modulators of nicotinic acetylcholine receptors” (Merck Sharp & Dohme Corp., priority 2017, dated 2021)
Like-named read-outs stand apart in the source and are kept apart here.

Biological target: human α7 nAChR (Homo sapiens, UniProt P36544)
Experiment: Automated patch-clamp electrophysiology functional assay (Assay A)
Assay type: cell-based
Conditions: IonFlux HT whole-cell population patch, HEK cell line stably expressing human RIC-3 and human α7, 40 μM acetylcholine
How it was run: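 Whole-cell population patch clamp at room temperature on HEK cells stably expressing human α7 and RIC-3, held at −60 mV. Compounds tested at three ascending concentrations per recording, with or without 40 μM acetylcholine; currents quantified relative to an initial 1 s 40 μM acetylcholine response; EC50 from concentration series.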

Chain of human α7 nAChR (P36544 23-502): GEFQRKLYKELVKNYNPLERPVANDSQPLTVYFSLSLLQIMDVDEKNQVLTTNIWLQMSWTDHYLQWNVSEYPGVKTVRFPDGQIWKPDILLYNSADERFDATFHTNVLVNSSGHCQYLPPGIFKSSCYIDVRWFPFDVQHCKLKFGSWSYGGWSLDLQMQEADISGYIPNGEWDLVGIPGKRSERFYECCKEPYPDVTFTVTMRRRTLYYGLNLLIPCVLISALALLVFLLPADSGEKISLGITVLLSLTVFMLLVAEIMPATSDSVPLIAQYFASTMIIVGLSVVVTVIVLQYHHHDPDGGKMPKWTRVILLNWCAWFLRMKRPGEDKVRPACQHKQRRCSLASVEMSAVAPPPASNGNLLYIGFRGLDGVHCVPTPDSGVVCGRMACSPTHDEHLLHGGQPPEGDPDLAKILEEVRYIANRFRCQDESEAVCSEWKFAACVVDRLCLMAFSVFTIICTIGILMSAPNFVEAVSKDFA

Row | Structure (SMILES) | EC50 (read-out: α7 nAChR EC50) [µM] | EC50 (read-out: α7 nAChR Potency) [µM]
1 | COc1ccc(Cl)cc1-c1noc([C@@H]2[C@@H](c3ccc(S(N)(=O)=O)cn3)C2(C)C)n1 [Example E4, 6-{(1R,3R)-3-[3-(5-Chloro-2-methoxyphenyl)-1,2,4-oxadiazol-5-yl]-2,2-dimethylcyclopropyl}pyridine-3-sulfonamide] | 5.4 | 5 to 50
2 | CC1(C)[C@H](c2ccc(S(N)(=O)=O)cn2)[C@H]1c1nc(-c2ccc(F)cc2F)no1 [Example E5, 6-{(1R,3R)-3-[3-(2,4-Difluorophenyl)-1,2,4-oxadiazol-5-yl]-2,2-dimethylcyclopropyl}pyridine-3-sulfonamide] | 1.3 | 0.5 to 5
3 | CC1(C)[C@H](c2ccc(S(N)(=O)=O)cn2)[C@H]1c1nc(-c2cccc(C(F)(F)F)c2)no1 [Example E6, 6-[(1R,3R)-2,2-Dimethyl-3-{3-[3-(trifluoromethyl)phenyl]-1,2,4-oxadiazol-5-yl}cyclopropyl]pyridine-3-sulfonamide] | – | 0.5 to 5
4 | CC1(C)[C@H](c2ccc(S(N)(=O)=O)cn2)[C@H]1c1nc(C2CCCCC2)no1 [Example E7, 6-[(1R,3R)-3-(3-Cyclohexyl-1,2,4-oxadiazol-5-yl)-2,2-dimethylcyclopropyl]pyridine-3-sulfonamide] | – | 0.5 to 5
5 | CC1(C)[C@@H](c2ccc(S(N)(=O)=O)cn2)[C@@H]1c1nc(-c2cccc(F)c2)no1 [Example F1, 6-{(1S,3S)-3-[3-(3-Fluorophenyl)-1,2,4-oxadiazol-5-yl]-2,2-dimethylcyclopropyl}pyridine-3-sulfonamide] | 1.1 | 0.5 to 5
6 | CC1(C)[C@@H](c2ccc(S(N)(=O)=O)cn2)[C@@H]1c1nc(-c2cncc(C(F)(F)F)c2)no1 [Example F2, 6-[(1S,3S)-2,2-Dimethyl-3-{3-[5-(trifluoromethyl)pyridin-3-yl]-1,2,4-oxadiazol-5-yl}cyclopropyl]pyridine-3-sulfonamide] | 3.3 | 0.5 to 5
7 | CC1(C)[C@@H](c2ccc(S(N)(=O)=O)cn2)[C@@H]1c1nc(C2CCCC2)no1 [Example F3, 6-[(1S,3S)-3-(3-Cyclopentyl-1,2,4-oxadiazol-5-yl)-2,2-dimethylcyclopropyl]pyridine-3-sulfonamide] | 0.34 | 0.1 to 0.5
8 | COc1ccc(Cl)cc1-c1noc([C@H]2[C@H](c3ccc(S(N)(=O)=O)cn3)C2(C)C)n1 [Example F4, 6-{(1S,3S)-3-[3-(5-Chloro-2-methoxyphenyl)-1,2,4-oxadiazol-5-yl]-2,2-dimethylcyclopropyl}pyridine-3-sulfonamide] | – | 0.5 to 5
9 | CC1(C)[C@@H](c2ccc(S(N)(=O)=O)cn2)[C@@H]1c1nc(-c2ccc(F)cc2F)no1 [Example F5, 6-{(1S,3S)-3-[3-(2,4-Difluorophenyl)-1,2,4-oxadiazol-5-yl]-2,2-dimethylcyclopropyl}pyridine-3-sulfonamide] | 1.7 | 0.5 to 5
10 | CC1(C)[C@@H](c2ccc(S(N)(=O)=O)cn2)[C@@H]1c1nc(-c2cccc(C(F)(F)F)c2)no1 [Example F6, 6-[(1S,3S)-2,2-Dimethyl-3-{3-[3-(trifluoromethyl)phenyl]-1,2,4-oxadiazol-5-yl}cyclopropyl]pyridine-3-sulfonamide] | 2.7 | 0.5 to 5
11 | CC1(C)[C@@H](c2ccc(S(N)(=O)=O)cn2)[C@@H]1c1nc(CC2CC2)no1 [Example F7, 6-{(1S,3S)-3-[3-(Cyclopropylmethyl)-1,2,4-oxadiazol-5-yl]-2,2-dimethylcyclopropyl}pyridine-3-sulfonamide] | 1.5 | 0.5 to 5
12 | CC1(C)[C@@H](c2ccc(S(N)(=O)=O)cn2)[C@@H]1c1nc(C2CC2)no1 [Example F8, 6-[(1S,3S)-3-(3-Cyclopropyl-1,2,4-oxadiazol-5-yl)-2,2-dimethylcyclopropyl]pyridine-3-sulfonamide] | 1.4 | 0.5 to 5
13 | CC(C)(C)c1noc([C@H]2[C@H](c3ccc(S(N)(=O)=O)cn3)C2(C)C)n1 [Example F9, 6-[(1S,3S)-3-(3-tert-Butyl-1,2,4-oxadiazol-5-yl)-2,2-dimethylcyclopropyl]pyridine-3-sulfonamide] | – | 0.5 to 5
14 | CC1(C)[C@@H](c2ccc(S(N)(=O)=O)cn2)[C@@H]1c1nc(-c2ccccc2)no1 [Example F10, 6-[(1S,3S)-2,2-Dimethyl-3-(3-phenyl-1,2,4-oxadiazol-5-yl)cyclopropyl]pyridine-3-sulfonamide] | 1.1 | 0.5 to 5
15 | CC1(C)[C@@H](c2ccc(S(N)(=O)=O)cn2)[C@@H]1c1nc(-c2cncc(F)c2)no1 [Example F11, 6-{(1S,3S)-3-[3-(5-Fluoropyridin-3-yl)-1,2,4-oxadiazol-5-yl]-2,2-dimethylcyclopropyl}pyridine-3-sulfonamide] | 3.4 | 0.5 to 5
16 | CC1(C)[C@@H](c2ccc(S(N)(=O)=O)cn2)[C@@H]1c1nc(C2CC(F)(F)C2)no1 [Example F12, 6-{(1S,3S)-3-[3-(3,3-Difluorocyclobutyl)-1,2,4-oxadiazol-5-yl]-2,2-dimethylcyclopropyl}pyridine-3-sulfonamide] | 1.9 | 0.5 to 5
17 | CC1(C)[C@@H](c2ccc(S(N)(=O)=O)cn2)[C@@H]1c1nc(C2CCC2)no1 [Example F13, 6-[(1S,3S)-3-(3-Cyclobutyl-1,2,4-oxadiazol-5-yl)-2,2-dimethylcyclopropyl]pyridine-3-sulfonamide] | – | 0.5 to 5
18 | CC(C)c1noc([C@H]2[C@H](c3ccc(S(N)(=O)=O)cn3)C2(C)C)n1 [Example F14, 6-{(1S,3S)-2,2-Dimethyl-3-[3-(propan-2-yl)-1,2,4-oxadiazol-5-yl]cyclopropyl}pyridine-3-sulfonamide] | 1.6 | 0.5 to 5
